pKi: −log10 of the molar value.
Each molecule was assayed against T1, recombinant RORγ Ligand Binding Domain (LBD) protein (Homo sapiens, UniProt P51449) (assay: Radio-Ligand RORγ Binding Assay (Assay 1)). Settings: competition with 25-hydroxy [26,27-3H]-cholesterol, SPA; class symbols; read-out: Avg ROR Bind Ki.
T1 construct: 6×His; GST
T1 sequence (P51449 269-508 limits assumed): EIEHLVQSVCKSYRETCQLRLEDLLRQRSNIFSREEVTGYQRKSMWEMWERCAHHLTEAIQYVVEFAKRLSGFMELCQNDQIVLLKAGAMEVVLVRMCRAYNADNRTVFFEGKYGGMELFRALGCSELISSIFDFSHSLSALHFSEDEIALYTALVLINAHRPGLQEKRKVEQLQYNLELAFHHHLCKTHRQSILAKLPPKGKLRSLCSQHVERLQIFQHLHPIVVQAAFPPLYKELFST
Protocol: Radio-Ligand RORγ Binding Assay (Assay 1)
Compounds described herein were tested for ability to bind to RORγ in a cell-free competition assay with commercially available radio-ligand (RL), 25-hydroxy [26,27-^3H]-cholesterol (PerkinElmer, Cat. #NET674250UC), for a ligand binding site on a recombinant RORγ Ligand Binding Domain (LBD) protein expressed as a 6×His-Glutathione-S-Transferase (GST) fusion. The assay was performed in 96-well SPA plates (PerkinElmer, Cat. #1450-401) in 50 mM HEPES buffer, pH 7.4, containing 150 mM NaCl, 5 mM MgCl2, 10% (v/v) glycerol, 2 mM CHAPS, 0.5 mM 3-octylglucopyranoside and 5 mM DTT. Tested compounds were dissolved in DMSO, and semi-log (3.162×) serial dilutions of the compounds were prepared in the same solvent. Two μL of the DMSO solutions were mixed with 28 μL of 8.6 nM 25-hydroxy [26,27-^3H]-cholesterol and 50 μL of 24 nM RORγ LBD. The plate was shaken at 700 rpm for 20 min and incubated for 10 min at rt, after which 40 μL of poly-Lys YSi SPA beads (PerkinElmer, Cat. #RPNQ0010) were added to achieve 50 μg of the beads per well. The plate was incubated on an orbital shaker for 20 min and then for 10 min without agitation at rt. SPA signal for tritium beta radiation was registered on PerkinElmer Microbeta plate reader. […] The percent inhibition vs. concentration data were fit into a four-parameter model, and IC50 values were calculated from the fit as the concentrations corresponding to the inflection points on the dose-response curves. Inhibitory constants (Ki) were calculated using the following equation, where [RL] is the concentration in the assay and KD is a dissociation constant of 25-hydroxy [26,27-^3H]-cholesterol: […]

pKi	SMILES
6.00 to 7.00	CCS(=O)(=O)c1ccc([C@H](CO)NC(=O)c2ccc3c(OC[C@H]4CC[C@H](C(F)(F)F)CC4)ncnc3c2)cc1 [Hy1C-1, N-((R)-1-(4-(ethylsulfonyl)phenyl)-2-hydroxyethyl)-4-(((1r,4R)-4-(trifluoromethyl)cyclohexyl)methoxy)quinazoline-7-carboxamide]
6.00 to 7.00	CCS(=O)(=O)c1ccc(CNC(=O)c2ccc3c(OC[C@H]4CC[C@H](C(F)(F)F)CC4)ncnc3c2)cc1 [Hy1C-2, N-(4-(ethylsulfonyl)benzyl)-4-(((1r,4r)-4-(trifluoromethyl)cyclohexyl)methoxy)quinazoline-7-carboxamide]

Same assay, conditions: radio-ligand competition, 25-hydroxy [26,27-3H]-cholesterol, RORγ LBD; read-out: Avg ROR Bind Ki

SMILES	pKi
CCS(=O)(=O)c1ccc(CNC(=O)c2ccc3c(c2)CCN(Cc2ccc(C#N)cc2)[C@@H]3C(C)C)cc1 (single isomer, unassigned) [Hy2A-15.2]	> 7.00
CCC1c2ccc(C(=O)NC(CO)c3ccc(S(=O)(=O)CC)cc3)cc2CCN1CC1CCC(C(F)(F)F)CC1 (single isomer, unassigned) [Hy2A-28.3]	6.00 to 7.00
CCS(=O)(=O)c1ccc(CNC(=O)c2ccc3c(c2)CCN(Cc2ccc(C#N)nc2)[C@@H]3C(C)C)cc1 (single isomer, unassigned) [Hy2A-17.2]	6.00 to 7.00
CCS(=O)(=O)c1ccc(CNC(=O)c2ccc3c(OCc4ccc(C(F)(F)F)cc4)cc(C)nc3c2)cc1 [Hy1B-1, N-(4-(ethylsulfonyl)benzyl)-2-methyl-4-((4-(trifluoromethyl)benzyl)oxy)quinoline-7-carboxamide]	6.00 to 7.00
CCS(=O)(=O)c1ccc([C@H](CO)NC(=O)c2ccc3c(OC[C@H]4CC[C@H](C(F)(F)F)CC4)cc(C)nc3c2)cc1 [Hy1B-4, N-((R)-1-(4-(ethylsulfonyl)phenyl)-2-hydroxyethyl)-2-methyl-4-(((1r,4R)-4-(trifluoromethyl)cyclohexyl)methoxy)quinoline-7-carboxamide]	6.00 to 7.00
CCOC(=O)c1cnc(N2CCc3cc(C(=O)NCc4ccc(S(=O)(=O)CC)cc4)ccc3[C@H]2C(C)C)nc1 (single isomer, unassigned) [Hy2A-4.2]	6.00 to 7.00
CCS(=O)(=O)c1ccc(CNC(=O)c2ccc3c(c2)CCN(c2ncc(C#N)cn2)[C@@H]3C(C)C)cc1 (single isomer, unassigned) [Hy2A-1.1]	6.00 to 7.00
CCS(=O)(=O)c1ccc(CNC(=O)c2ccc3c(c2)CCN(Cc2ccc(OC(F)F)nc2)[C@@H]3C(C)C)cc1 (single isomer, unassigned) [Hy2A-25.2]	6.00 to 7.00
CCS(=O)(=O)c1ccc(CNC(=O)c2ccc3c(c2)CCN(Cc2ccc(C#N)cc2)C3C)cc1 (racemic) [Hy2A-10, 2-(4-cyanobenzyl)-N-(4-(ethylsulfonyl)benzyl)-1-methyl-1,2,3,4-tetrahydroisoquinoline-6-carboxamide]	6.00 to 7.00
CCOC(=O)c1cnc(N2CCc3cc(C(=O)NCc4ccc(S(=O)(=O)CC)cc4)ccc3[C@H]2C(C)C)nc1C(F)(F)F (single isomer, unassigned) [Hy2A-5.2]	6.00 to 7.00
CCS(=O)(=O)c1ccc(CNC(=O)c2ccc3c(c2)CCN(Cc2ccc(F)cc2)C3C)cc1 (racemic) [Hy2A-8, N-(4-(ethylsulfonyl)benzyl)-2-(4-fluorobenzyl)-1-methyl-1,2,3,4-tetrahydroisoquinoline-6-carboxamide]	6.00 to 7.00
CCS(=O)(=O)c1ccc(CNC(=O)c2ccc3c(c2)CCN(Cc2ncc(Br)cn2)[C@@H]3C(C)C)cc1 (single isomer, unassigned) [Hy2A-26.2]	6.00 to 7.00

Continued, values first:

pKi	SMILES
6.00 to 7.00	CC[C@@H]1CN(c2ncc(C(F)(F)F)cn2)Cc2cc(C(=O)NCc3ccc(S(=O)(=O)CC)cn3)ccc21 (single isomer, unassigned) [Hy7-10.2]
> 7.00	CCC1CN(C2CCC(C(F)(F)F)CC2)Cc2cc(C(=O)NC(CO)c3ccc(S(=O)(=O)CC)cc3)ccc21 (single isomer, unassigned) [Hy7-35.3]
6.00 to 7.00	CCS(=O)(=O)c1ccc(CNC(=O)c2ccc3c(c2)CN(c2ncc(C#N)cn2)C[C@@H]3C(C)C)cc1 (single isomer, unassigned) [Hy7-2.2]
6.00 to 7.00	CCOC(=O)c1cnc(N2Cc3cc(C(=O)NCc4ccc(S(=O)(=O)CC)cc4)ccc3[C@@H](C(C)C)C2)nc1 (single isomer, unassigned) [Hy7-16.2]
6.00 to 7.00	CC[C@@H]1CN(C2CCOCC2)Cc2cc(C(=O)N[C@@H](CO)c3ccc(S(=O)(=O)CC)cc3)ccc21 (single isomer, unassigned) [Hy7-30.1]
6.00 to 7.00	CCS(=O)(=O)c1ccc(CNC(=O)c2c[nH]c3c(OC[C@H]4CC[C@H](C(F)(F)F)CC4)nccc23)cc1 [Hy5-2, N-(4-(ethylsulfonyl)benzyl)-7-(((1r,4r)-4-(trifluoromethyl)cyclohexyl)methoxy)-1H-pyrrolo[2,3-c]pyridine-3-carboxamide]
6.00 to 7.00	CCS(=O)(=O)c1ccc([C@H](CO)NC(=O)c2cn(C)c3c(OC[C@H]4CC[C@H](C(F)(F)F)CC4)nccc23)cc1 [Hy5-5, N-((R)-1-(4-(ethylsulfonyl)phenyl)-2-hydroxyethyl)-1-methyl-7-(((1r,4R)-4-(trifluoromethyl)cyclohexyl)methoxy)-1H-pyrrolo[2,3-c]pyridine-3-carboxamide]
6.00 to 7.00	CC[C@H]1CN(c2ncc(C(F)(F)F)cn2)Cc2cc(C(=O)N[C@@H](CO)c3ccc(S(=O)(=O)CC)cn3)ccc21 (single isomer, unassigned) [Hy7-18.3]
6.00 to 7.00	CCOc1cnc(N2Cc3cc(C(=O)NCc4ccc(S(=O)(=O)CC)cc4)ccc3[C@@H](C(C)C)C2)nc1 (single isomer, unassigned) [Hy7-5.2]
6.00 to 7.00	CCS(=O)(=O)c1ccc(CNC(=O)c2ccc3c(c2)CN(c2ncc(-c4ccnc(OC)c4)cn2)C[C@@H]3C(C)C)cc1 (single isomer, unassigned) [Hy7-23.2]
< 6.00	CCS(=O)(=O)c1ccc(CNC(=O)c2ccc3c(c2)CN(c2ncc(N4CCOCC4)cn2)C[C@@H]3C(C)C)cc1 (single isomer, unassigned) [Hy7-19.2]
> 7.00	CCOC(=O)c1cnc(N2Cc3cc(C(=O)N[C@@H](CO)c4ccc(S(=O)(=O)CC)cc4)ccc3[C@@H](CC)C2)nc1 (single isomer, unassigned) [Hy7-34.2]
6.00 to 7.00	CCC1CN(C2CCC(C(F)(F)F)CC2)Cc2cc(C(=O)NC(CO)c3ccc(S(=O)(=O)CC)cc3)ccc21 (single isomer, unassigned) [Hy7-35.4]

Same assay, conditions: radio-ligand competition, RORγ LBD; head without unit (Tables 15, 17); read-out: Avg ROR Bind Ki

SMILES	pKi
CCS(=O)(=O)c1ccc(CNC(=O)c2cnc3c(c2)CCN(c2ncc(C#N)cn2)[C@H]3C(C)C)cc1 (single isomer, unassigned) [Hy2B-1.1]	< 6.00
CCOC(=O)c1cnc(N2CCc3cc(C(=O)NCc4ccc(S(=O)(=O)CC)cc4)cnc3[C@H]2C(C)C)nc1 (single isomer, unassigned) [Hy2B-4.1]	< 6.00
CCOC(=O)c1cnc(N2CCc3cc(C(=O)NCc4ccc(S(=O)(=O)CC)cc4)cnc3[C@@H]2C(C)C)nc1 (single isomer, unassigned) [Hy2B-4.2]	< 6.00
CCS(=O)(=O)c1ccc(CNC(=O)c2cnc3c(c2)CCN(c2ncc(Cl)cn2)[C@H]3C(C)C)cc1 (single isomer, unassigned) [Hy2B-2.1]	6.00 to 7.00
CCOC(=O)c1cnc(N2CCc3cc(C(=O)NCc4ccc(S(=O)(=O)CC)cc4)cnc3[C@H]2C(C)C)nc1C(F)(F)F (single isomer, unassigned) [Hy2B-5.1]	6.00 to 7.00

Now from value to molecule:

pKi	SMILES
6.00 to 7.00	CCS(=O)(=O)c1ccc(CNC(=O)c2cnc3c(c2)CCN(C[C@H]2CC[C@H](C(F)(F)F)CC2)[C@@H]3C(C)C)cc1 (single isomer, unassigned) [Hy2B-9.2]
6.00 to 7.00	CCS(=O)(=O)c1ccc(CNC(=O)c2cc3ccnc(OC[C@H]4CC[C@H](C(F)(F)F)CC4)c3[nH]2)cc1 [Hy4-5, N-(4-(ethylsulfonyl)benzyl)-7-(((1r,4r)-4-(trifluoromethyl)cyclohexyl)methoxy)-1H-pyrrolo[2,3-c]pyridine-2-carboxamide]
6.00 to 7.00	CCOC(=O)c1cnc(N2CCc3cc(C(=O)NCc4ccc(S(=O)(=O)CC)cc4)cnc3[C@@H]2C(C)C)nc1C(F)(F)F (single isomer, unassigned) [Hy2B-5.2]
< 6.00	CCS(=O)(=O)c1ccc(CNC(=O)c2cnc3c(c2)CCN(Cc2ccc(C#N)cc2)C3C(C)C)cc1 (single isomer, unassigned) [Hy2B-7.2]
6.00 to 7.00	CCS(=O)(=O)c1ccc(CNC(=O)c2cnc3c(c2)CCN(C[C@H]2CC[C@H](C(F)(F)F)CC2)[C@@H]3C(C)C)nc1 (single isomer, unassigned) [Hy2B-10.2]
